Numbers after ± are expanded uncertainties.
Assays:
[1] = Crystal; DTA
[2] = Molar enthalpy of transition or fusion; conditions: Crystal; DSC

Row | Normal melting temperature [1] | Molar enthalpy of transition or fusion [2] | SMILES
1 | 329.4 ± 0.4 °C | 4.16 ± 0.0956 kcal/mol | CC(=O)[O-].[Na+] [sodium ethanoate]
2 | 191.6 ± 0.4 °C | 2.63 ± 0.0956 kcal/mol | CC(=O)[O-].[Cs+] [cesium acetate]
3 | 240.5 ± 0.4 °C | 2.13 ± 0.191 kcal/mol | CC(=O)[O-].[Rb+] [rubidium acetate]
4 | 283.5 ± 0.4 °C | 3.01 ± 0.0956 kcal/mol | CC(=O)[O-].[Li+] [lithium acetate]
5 | 305.2 ± 0.4 °C | 2.87 ± 0.0956 kcal/mol | CC(=O)[O-].[K+] [potassium ethanoate]
